These results are taken from patent publication US8933224B2, “Triazine derivatives” (Pfizer Inc., priority 2013, dated 2015).

Some results are limits rather than exact numbers.

One assay has as its target rat PDE10 enzyme (Rattus norvegicus (Rat), UniProt Q9QYJ6). The assay can be described thus: PDE10 scintillation proximity assay (SPA), inhibition of rat PDE10 enzyme activity. Type of assay: biochemical. The note with it: geometric mean of 2-4 determinations unless otherwise indicated (b: ≧5 determinations; c: single determination). Put shortly: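 SPA with fixed recombinant PDE10 (Sf21-expressed, Ni-NTA and Mono Q purified) converting ~20% of 20 nM ³H-cAMP in 50 mM TRIS pH 7.5, 1.3 mM MgCl2, 0.01% Brij, across an inhibitor range.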
(In general: SPA uses beads or plates that emit light when radiolabelled molecules are held near them.)

Assay [1] has as its target human recombinant PDE10 enzyme (PDE10A) (Homo sapiens, UniProt Q9Y233). The assay can be described thus: PDE10 scintillation proximity assay (SPA), inhibition of human recombinant PDE10 enzyme activity. Type of assay: biochemical. The note with it: geometric mean of 2-4 determinations unless otherwise indicated (b: ≧5 determinations; c: single determination). On the procedure: PDE10 activity was measured using a scintillation assay (SPA-based method) similar to that previously described by Seeger, T. F. et al., Brain Research 985 (2003) 113-126. The compounds' relative activity as PDE10 inhibitors was investigated by assaying a fixed amount of enzyme in the presence of the test compound and low substrate concentration (cAMP) such that an IC50 could be determined. […] The assay is performed in a 384-well format with 50 μL assay buffer (50 mM TRIS pH 7.5; 1.3 mM MgCl2; 0.01% Brij) containing enough PDE10 to convert ˜20% of 20 nM ^3H-cAMP, and a range of inhibitors. Reactions are incubated for 30 minutes at 25° C. The addition of 20 μL of 8 mg/ml yttrium silicate SPA beads (PerkinElmer) stops the reaction. The plates are sealed (TopSeal, PerkinElmer) and the beads are allowed to settle for 8 hrs, after which they are read on the Trilux Microbeta overnight. ^1Rat enzyme preparation:^2Human enzyme preparation:
Human PDE10A coding sequence (amino acids 21 to 797 from the sequence with accession number NP_001124162.1) was synthesized using codon optimization for insect expression and cloned into the baculovirus expression vector pFastBac (Invitrogen) engineered to include a N-terminal His6 affinity tag to aid in purification as described in Seeger, T. F. et al., Brain Research 985 (2003) 113-126. The recombinant Bacmid was isolated and used to transfect sf9 insect cells to generate a viral stock. To generate cell paste for purification, sf21 cells were infected with the virus stock and cells were harvested 72 hours after infection as described in Seeger, T. F. et al., Brain Research 985 (2003) 113-126. Insect cell paste was lysed and after centrifugation, the supernatant was chromatographed on Ni-NTA agarose (Qiagen) as described in Seeger, T. F. et al., Brain Research 985 (2003) 113-126. Ni-NTA agarose eluting fractions containing PDE10A were chromatographed on Superdex 200 (GE Healthcare Life Sciences) in 50 mM Tris HCl pH 7.5, 150 mM NaCl, 1 mM EDTA, 10% glycerol, 2 mM TCEP, 1.5 mM benzamidine, EDTA-free protease inhibitors (Roche), and 5 μM E-64.

Sequence of rat PDE10 enzyme (Q9QYJ6 24-794): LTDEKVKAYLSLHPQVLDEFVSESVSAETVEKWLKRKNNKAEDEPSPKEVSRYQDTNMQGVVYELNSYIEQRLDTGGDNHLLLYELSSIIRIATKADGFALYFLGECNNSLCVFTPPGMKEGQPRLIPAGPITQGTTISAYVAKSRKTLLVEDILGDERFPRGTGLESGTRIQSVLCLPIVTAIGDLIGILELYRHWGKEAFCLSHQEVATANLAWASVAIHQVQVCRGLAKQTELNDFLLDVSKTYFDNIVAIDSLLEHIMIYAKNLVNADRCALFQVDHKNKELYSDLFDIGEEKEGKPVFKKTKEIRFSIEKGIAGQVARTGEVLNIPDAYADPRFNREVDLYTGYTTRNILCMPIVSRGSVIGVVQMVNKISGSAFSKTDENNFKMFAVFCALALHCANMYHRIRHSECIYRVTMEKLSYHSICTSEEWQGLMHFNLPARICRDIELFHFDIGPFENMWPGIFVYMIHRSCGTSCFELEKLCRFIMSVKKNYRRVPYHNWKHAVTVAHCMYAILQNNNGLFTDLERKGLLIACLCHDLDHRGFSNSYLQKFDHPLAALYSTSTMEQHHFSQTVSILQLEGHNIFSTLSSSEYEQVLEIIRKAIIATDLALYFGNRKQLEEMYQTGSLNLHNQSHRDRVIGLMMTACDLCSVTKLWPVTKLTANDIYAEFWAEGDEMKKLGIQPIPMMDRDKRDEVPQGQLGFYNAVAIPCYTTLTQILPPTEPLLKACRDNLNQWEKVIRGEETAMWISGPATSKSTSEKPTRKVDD

As usually defined, the IC50 is the midpoint of a concentration-inhibition curve. In the case of `COc1cnc2c(c1)CN(c1ncnn3c(C)nc(-c4ccccc4F)c13)CC2` [Example 25, 6-[5-(2-fluorophenyl)-7-methylimidazo[5,1-f][1,2,4]triazin-4-yl]-3-methoxy-5,6,7,8-tetrahydro-1,6-naphthyridine], the IC50 against rat PDE10 enzyme stood at 1.12 nM; in assay [1], 1.41 nM.

As for `CCOc1nc(C2CC2)nc2c1CN(c1ncnn3c(C)nc([C@@H]4CCOC4)c13)CC2` [Example 148, 2-cyclopropyl-4-ethoxy-6-{7-methyl-5-[(3S)-tetrahydrofuran-3-yl]imidazo[5,1-f][1,2,4]triazin-4-yl}-5,6,7,8-tetrahydropyrido[4,3-d]pyrimidine], the 50% inhibitory concentration (IC50) is 0.125 nM against rat PDE10 enzyme and 0.166 nM in assay [1].

On to `Cc1nc([C@@H]2CCOC2)c2c(N3CCc4cc(C5CC5)ncc4C3)ncnn12` [Example 161, 6-cyclopropyl-2-{7-methyl-5-[(3S)-tetrahydrofuran-3-yl]imidazo[5,1-f][1,2,4]triazin-4-yl}-1,2,3,4-tetrahydro-2,7-naphthyridine], for which the half-inhibitory concentration (IC50) turned out to be 0.163 nM on rat PDE10 enzyme and 0.468 nM in assay [1].

In the case of `Cc1nc([C@@H]2CCOC2)c2c(N3CCc4cnn(CC(C)C)c4C3)ncnn12` [Example 169, 7-methyl-4-[1-(2-methylpropyl)-1,4,5,7-tetrahydro-6H-pyrazolo[3,4-c]pyridin-6-yl]-5-[(3S)-tetrahydrofuran-3-yl]imidazo[5,1-f][1,2,4]triazine], the IC50 against rat PDE10 enzyme came to 0.367 nM; in assay [1], 0.755 nM.

On to `COc1ccc2c(c1)CCN(c1ncnn3c(C)nc([C@@H]4CCOC4)c13)C2` [Example 58, 6-methoxy-2-{7-methyl-5-[(3S)-tetrahydrofuran-3-yl]imidazo[5,1-f][1,2,4]triazin-4-yl}-1,2,3,4-tetrahydroisoquinoline], for which the IC50 against rat PDE10 enzyme is below 1.16 nM; in assay [1], 1.12 nM.

On to `COc1ccc2c(c1OCCF)CN(c1ncnn3c(C)nc([C@@H]4CCOC4)c13)CC2` [Example 4, 8-(2-Fluoroethoxy)-7-methoxy-2-{7-methyl-5-[(3S)-tetrahydrofuran-3-yl]imidazo[5,1-f][1,2,4]triazin-4-yl}-1,2,3,4-tetrahydroisoquinoline], for which the half-maximal inhibitory concentration (IC50) was found to be 0.205 nM at rat PDE10 enzyme and 0.0386 nM in assay [1].

In the case of `Cc1nc(-c2ccccc2F)c2c(N3CCc4cc(C5CC5)ncc4C3)ncnn12` [Example 162, 6-cyclopropyl-2-[5-(2-fluorophenyl)-7-methylimidazo[5,1-f][1,2,4]triazin-4-yl]-1,2,3,4-tetrahydro-2,7-naphthyridine], the concentration for half-maximal inhibition (IC50) on rat PDE10 enzyme came to 2.16 nM; in assay [1], 5.21 nM.

As to `CCc1c2c(nn1C)CCN(c1ncnn3c(C)nc([C@@H]4CCOC4)c13)C2` [Example 57, 4-(3-ethyl-2-methyl-2,4,6,7-tetrahydro-5H-pyrazolo[4,3-c]pyridin-5-yl)-7-methyl-5-[(3S)-tetrahydrofuran-3-yl]imidazo[5,1-f][1,2,4]triazine], the 50% inhibitory concentration (IC50) against rat PDE10 enzyme was found to be 0.364 nM; in assay [1], 13.8 nM.

In the case of `Cc1nc(-c2ccccc2F)c2c(N3CCc4ccc(C5CC5)nc4C3)ncnn12` [Example 75, 2-cyclopropyl-7-[5-(2-fluorophenyl)-7-methylimidazo[5,1-f][1,2,4]triazin-4-yl]-5,6,7,8-tetrahydro-1,7-naphthyridine], the IC50 was found to be 3.56 nM against rat PDE10 enzyme and 6.03 nM in assay [1].

For `Cc1nc([C@H]2CCOC2)c2c(N3CCc4ncccc4C3)ncnn12` [Example 96, 6-{7-methyl-5-[(3R)-tetrahydrofuran-3-yl]imidazo[5,1-f][1,2,4]triazin-4-yl}-5,6,7,8-tetrahydro-1,6-naphthyridine], the figures for the half-maximal inhibitory concentration (IC50) (on rat PDE10 enzyme; in assay [1]) were 5.2 nM and 4.8 nM, respectively.

Consider `Cc1nc([C@@H]2CCOC2)c2c(N3CCc4nn(C5CC5)cc4C3)ncnn12` [Example 11, 4-(2-Cyclopropyl-2,4,6,7-tetrahydro-5H-pyrazolo[4,3-c]pyridin-5-yl)-7-methyl-5-[(3S)-tetrahydrofuran-3-yl]imidazo[5,1-f][1,2,4]triazine], for which the concentration for half-maximal inhibition (IC50) was found to be 0.174 nM at rat PDE10 enzyme and 0.265 nM in assay [1].

For `Cc1nc([C@@H]2CCOC2)c2c(N3CCc4c(c(C5CC5)nn4C)C3)ncnn12` [Example 12, 4-(3-Cyclopropyl-1-methyl-1,4,6,7-tetrahydro-5H-pyrazolo[4,3-c]pyridin-5-yl)-7-methyl-5-[(3S)-tetrahydrofuran-3-yl]imidazo[5,1-f][1,2,4]triazine], the figures for the IC50 (against rat PDE10 enzyme; in assay [1]) were 0.194 nM and 0.257 nM, respectively.

In the case of `Cc1nc(-c2ccccc2F)c2c(N3Cc4c(cnn4C)C(C)C3)ncnn12` (stereo not shown) [Example 168], the IC50 is 6.1 nM against rat PDE10 enzyme and 3.96 nM in assay [1].

Consider `Cc1nc([C@@H]2CCOC2)c2c(N3Cc4c(cnn4C)[C@H](C)C3)ncnn12` (single isomer, unassigned) [Example 20], for which the values for the IC50 (on rat PDE10 enzyme; in assay [1]) were 1.72 nM and 2.51 nM, respectively.

Turning to `Cc1nc(-c2ccccc2F)c2c(N3CCc4cnn(C)c4C3)ncnn12` [Example 2, 5-(2-Fluorophenyl)-7-methyl-4-(1-methyl-1,4,5,7-tetrahydro-6H-pyrazolo[3,4-c]pyridin-6-yl)imidazo[5,1-f][1,2,4]triazine], the figures for the IC50 (against rat PDE10 enzyme; in assay [1]) were 2.95 nM and 3.28 nM, respectively.

On to `Cc1nc([C@@H]2CCOC2)c2c(N3CCc4nn(C)c(C5CC5)c4C3)ncnn12` [Example 44, 4-(3-cyclopropyl-2-methyl-2,4,6,7-tetrahydro-5H-pyrazolo[4,3-c]pyridin-5-yl)-7-methyl-5-[(3S)-tetrahydrofuran-3-yl]imidazo[5,1-f][1,2,4]triazine], for which the results for the concentration for half-maximal inhibition (IC50) (on rat PDE10 enzyme; in assay [1]) were 0.102 nM and 0.11 nM, respectively.

Take `Cc1cc2c(cn1)CN(c1ncnn3c(C)nc(-c4ccccc4F)c13)CC2` [Example 164, 2-[5-(2-fluorophenyl)-7-methylimidazo[5,1-f][1,2,4]triazin-4-yl]-6-methyl-1,2,3,4-tetrahydro-2,7-naphthyridine]: the IC50 against rat PDE10 enzyme came out at 3.32 nM; in assay [1], 5.92 nM.

On to `Cc1nc([C@@H]2CCOC2)c2c(N3CCc4cnn(CC(F)(F)F)c4C3)ncnn12` [Example 170, 7-methyl-5-[(3S)-tetrahydrofuran-3-yl]-4-[1-(2,2,2-trifluoroethyl)-1,4,5,7-tetrahydro-6H-pyrazolo[3,4-c]pyridin-6-yl]imidazo[5,1-f][1,2,4]triazine], for which the IC50 against rat PDE10 enzyme turned out to be 1.94 nM; in assay [1], 2.55 nM.

Take `Cc1nc(C2CCOCC2)c2c(N3CCc4c(c(C(C)C)nn4C)C3)ncnn12` [Example 21, 4-(3-isopropyl-1-methyl-1,4,6,7-tetrahydro-5H-pyrazolo[4,3-c]pyridin-5-yl)-7-methyl-5-(tetrahydro-2H-pyran-4-yl)imidazo[5,1-f][1,2,4]triazine]: the figures for the IC50 (at rat PDE10 enzyme; in assay [1]) were 0.51 nM and 0.876 nM, respectively.

Take `Cc1nc(C)c2c(n1)CCN(c1ncnn3c(C)nc(-c4ccccc4F)c13)C2` [Example 130, 6-[5-(2-fluorophenyl)-7-methylimidazo[5,1-f][1,2,4]triazin-4-yl]-2,4-dimethyl-5,6,7,8-tetrahydropyrido[4,3-d]pyrimidine]: the half-maximal inhibitory concentration (IC50) is 1.65 nM against rat PDE10 enzyme and 2.34 nM in assay [1].

With `CCc1nc(C)nc2c1CN(c1ncnn3c(C)nc(-c4ccccc4F)c13)CC2` [Example 131, 4-ethyl-6-[5-(2-fluorophenyl)-7-methylimidazo[5,1-f][1,2,4]triazin-4-yl]-2-methyl-5,6,7,8-tetrahydropyrido[4,3-d]pyrimidine], the IC50 was determined as 0.456 nM on rat PDE10 enzyme and 0.573 nM in assay [1].

Turning to `Cc1nc([C@H]2CCOC2)c2c(N3CCc4c(c(C(C)C)nn4C)C3)ncnn12` [Example 85, 7-methyl-4-{1-methyl-3-(propan-2-yl)-1,4,6,7-tetrahydro-5H-pyrazolo[4,3-c]pyridin-5-yl]-5-[(3R)-tetrahydrofuran-3-yl]imidazo[5,1-f][1,2,4]triazine], the IC50 against rat PDE10 enzyme came to 0.556 nM; in assay [1], 0.182 nM.

For `Cc1nc([C@H]2CCCO2)c2c(N3CCc4cnn(C)c4C3)ncnn12` (single isomer, unassigned) [Example 13], the half-inhibitory concentration (IC50) in assay [1] came to 7.59 nM.

Take `Cc1nc(-c2ccccc2F)c2c(N3CCc4nc(C5CC5)n(C)c(=O)c4C3)ncnn12` [Example 142, 2-cyclopropyl-6-[5-(2-fluorophenyl)-7-methylimidazo[5,1-f][1,2,4]triazin-4-yl]-3-methyl-5,6,7,8-tetrahydropyrido[4,3-d]pyrimidin-4(3H)-one]: the half-maximal inhibitory concentration (IC50) in assay [1] stood at 1.31 nM.
